# Data taken from ChEMBL document CHEMBL4673219, “Novel 5,6-disubstituted pyrrolo[2,3-d]pyrimidine derivatives as broad spectrum antiproliferative agents: Synthesis, cell based assays, kinase profile and molecular docking study” (Bioorg Med Chem, 2018).
# Values joined by “and” are separate entries in the source; they are usually repeats but may differ in a detail not shown here. Equal values may be shown once.
# How the values were obtained:
# Type in all cases: functional
# HOP-62 = assay: Growth inhibition of human HOP-62 cells assessed as growth percentage at 0.1 uM incubated for 48 hrs by sulforhodamine B assay relative to control; conditions: read-out: Activity
# MDA-MB-435 [1] = assay: Growth inhibition of human MDA-MB-435 cells assessed as growth percentage at 0.1 uM incubated for 48 hrs by sulforhodamine B assay relative to control; conditions: read-out: Activity
# NCI-H460 = assay: Growth inhibition of human NCI-H460 cells incubated for 48 hrs by sulforhodamine B assay
# LOX IMVI [2] = assay: Growth inhibition of human LOX IMVI cells assessed as growth percentage at 1 uM incubated for 48 hrs by sulforhodamine B assay relative to control; conditions: read-out: Activity
# IGROV-1 = assay: Growth inhibition of human IGROV-1 assessed as growth percent at 1 uM incubated for 48 hrs by sulforhodamine B assay relative to control; conditions: read-out: Activity
# NCI-H226 = assay: Growth inhibition of human NCI-H226 cells assessed as growth percentage at 0.01 uM incubated for 48 hrs by sulforhodamine B assay relative to control; conditions: read-out: Activity
# Malme-3M = assay: Growth inhibition of human Malme-3M cells assessed as growth percentage at 1 uM incubated for 48 hrs by sulforhodamine B assay relative to control; conditions: read-out: Activity
# T47D = assay: Growth inhibition of human T47D cells incubated for 48 hrs by sulforhodamine B assay; conditions: for GI50: 48 h
# MDA-MB-435 [3] = assay: Growth inhibition of human MDA-MB-435 cells assessed as growth percentage at 1 uM incubated for 48 hrs by sulforhodamine B assay relative to control; conditions: read-out: Activity
# SK-OV-3 = assay: Growth inhibition of human SK-OV-3 cells assessed as growth percentage at 0.01 uM incubated for 48 hrs by sulforhodamine B assay relative to control; conditions: read-out: Activity
# HT-29 [4] = assay: Growth inhibition of human HT-29 cells assessed as growth percentage at 1 uM incubated for 48 hrs by sulforhodamine B assay relative to control; conditions: read-out: Activity
# LOX IMVI [5] = assay: Growth inhibition of human LOX IMVI cells assessed as growth percentage at 0.01 uM incubated for 48 hrs by sulforhodamine B assay relative to control; conditions: read-out: Activity
# UACC-257 [6] = assay: Growth inhibition of human UACC-257 cells incubated for 48 hrs by sulforhodamine B assay
# SW-620 [7] = assay: Growth inhibition of human SW-620 cells assessed as growth percentage at 0.1 uM incubated for 48 hrs by sulforhodamine B assay relative to control; conditions: read-out: Activity
# NCI-H322M = assay: Growth inhibition of human NCI-H322M cells assessed as growth percentage at 0.1 uM incubated for 48 hrs by sulforhodamine B assay relative to control; conditions: read-out: Activity
# SK-MEL-2 = assay: Growth inhibition of human SK-MEL-2 cells assessed as growth percentage at 10 uM incubated for 48 hrs by sulforhodamine B assay relative to control; conditions: read-out: Activity
# BT-549 [8] = assay: Growth inhibition of human BT-549 cells assessed as growth percentage at 1 uM incubated for 48 hrs by sulforhodamine B assay relative to control; conditions: read-out: Activity
# MOLT-4 = assay: Growth inhibition of human MOLT-4 cells assessed as growth percentage at 100 uM incubated for 48 hrs by sulforhodamine B assay relative to control; conditions: read-out: Activity
# BT-549 [9] = assay: Growth inhibition of human BT-549 cells assessed as growth percentage at 10 uM incubated for 48 hrs by sulforhodamine B assay relative to control; conditions: read-out: Activity
# HCC 2998 = assay: Growth inhibition of human HCC 2998 cells assessed as growth percentage at 100 uM incubated for 48 hrs by sulforhodamine B assay relative to control; conditions: read-out: Activity
# SW-620 [10] = assay: Growth inhibition of human SW-620 cells assessed as growth percentage at 100 uM incubated for 48 hrs by sulforhodamine B assay relative to control; conditions: read-out: Activity
# SNB-19 [11] = assay: Growth inhibition of human SNB-19 cells incubated for 48 hrs by sulforhodamine B assay
# Hs-578T = assay: Growth inhibition of human Hs-578T cells assessed as growth percentage at 1 uM incubated for 48 hrs by sulforhodamine B assay relative to control; conditions: read-out: Activity
# A549 = assay: Growth inhibition of human A549/ATCC cells assessed as growth percentage at 0.1 uM incubated for 48 hrs by sulforhodamine B assay relative to control; conditions: read-out: Activity
# DU-145 = assay: Growth inhibition of human DU-145 cells assessed as growth percentage at 0.1 uM incubated for 48 hrs by sulforhodamine B assay relative to control; conditions: read-out: Activity
# BT-549 [12] = assay: Growth inhibition of human BT-549 cells incubated for 48 hrs by sulforhodamine B assay
# HT-29 [13] = assay: Growth inhibition of human HT-29 cells assessed as growth percentage at 10 uM incubated for 48 hrs by sulforhodamine B assay relative to control; conditions: read-out: Activity
# RXF 393 [14] = assay: Growth inhibition of human RXF 393 cells assessed as growth percentage at 10 uM incubated for 48 hrs by sulforhodamine B assay relative to control; conditions: read-out: Activity
# UO-31 = assay: Growth inhibition of human UO-31 cells assessed as growth percentage at 0.1 uM incubated for 48 hrs by sulforhodamine B assay relative to control; conditions: read-out: Activity
# NCI-H522 = assay: Growth inhibition of human NCI-H522 cells assessed as growth percentage at 1 uM incubated for 48 hrs by sulforhodamine B assay relative to control; conditions: read-out: Activity
# RXF 393 [15] = assay: Growth inhibition of human RXF 393 cells assessed as growth percentage at 1 uM incubated for 48 hrs by sulforhodamine B assay relative to control; conditions: read-out: Activity
# UACC-257 [16] = assay: Growth inhibition of human UACC-257 cells assessed as growth percentage at 0.01 uM incubated for 48 hrs by sulforhodamine B assay relative to control; conditions: read-out: Activity
# SNB-19 [17] = assay: Growth inhibition of human SNB-19 cells assessed as growth percentage at 1 uM incubated for 48 hrs by sulforhodamine B assay relative to control; conditions: read-out: Activity
# OVCAR-4 = assay: Growth inhibition of human OVCAR-4 cells assessed as growth percentage at 100 uM incubated for 48 hrs by sulforhodamine B assay relative to control; conditions: read-out: Activity
# RXF 393 [18] = assay: Growth inhibition of human RXF 393 cells assessed as growth percentage at 0.01 uM incubated for 48 hrs by sulforhodamine B assay relative to control; conditions: read-out: Activity
# RXF 393 [19] = assay: Growth inhibition of human RXF 393 cells incubated for 48 hrs by sulforhodamine B assay
# MCF7 = assay: Growth inhibition of human MCF7 cells incubated for 48 hrs by sulforhodamine B assay
# SNB-75 = assay: Growth inhibition of human SNB-75 cells assessed as growth percentage at 100 uM incubated for 48 hrs by sulforhodamine B assay relative to control; conditions: read-out: Activity
compound,measurement,setting,value
Nc1nc2[nH]c(CN3CCN(c4cc(Cl)cc(Cl)c4)CC3)c(CN3CCN(c4cc(Cl)cc(Cl)c4)CC3)c2c(=O)[nH]1,growth at 0.1 µM,HOP-62,99%
same,growth at 0.1 µM,MDA-MB-435 [1],97%
same,TGI,"NCI-H460; Homo sapiens, NCI-H460",3.94 µM
same,GI50,"NCI-H460; Homo sapiens, NCI-H460, 48 h",1.96 µM
same,growth at 1 µM,LOX IMVI [2],104%
same,growth at 1 µM,IGROV-1,96%
same,growth at 0.01 µM,NCI-H226,95%
same,growth at 1 µM,Malme-3M,101%
same,TGI,"T47D; Homo sapiens, T47D",4.02 µM
same,GI50,"T47D; Homo sapiens, T47D",1.78 µM
same,growth at 1 µM,MDA-MB-435 [3],88%
same,growth at 0.01 µM,SK-OV-3,95%
same,growth at 1 µM,HT-29 [4],91%
same,growth at 0.01 µM,LOX IMVI [5],99%
same,GI50,"UACC-257 [6]; Homo sapiens, UACC-257, 48 h",2.06 µM
same,TGI,"UACC-257 [6]; Homo sapiens, UACC-257, 48 h",4.76 µM
same,growth at 0.1 µM,SW-620 [7],94%
same,growth at 0.1 µM,NCI-H322M,102%
same,growth at 10 µM,SK-MEL-2,108%
same,growth at 1 µM,BT-549 [8],85%
same,growth at 100 µM,MOLT-4,-7%
same,growth at 10 µM,BT-549 [9],87%
same,growth at 100 µM,HCC 2998,-38%
same,growth at 100 µM,SW-620 [10],-79%
same,GI50,SNB-19 [11],1.77 µM
same,TGI,SNB-19 [11],3.67 µM
same,growth at 1 µM,Hs-578T,84%
same,growth at 0.1 µM,A549,94%
same,growth at 0.1 µM,DU-145,109%
same,GI50,BT-549 [12],1.72 µM
same,TGI,BT-549 [12],3.76 µM
same,growth at 10 µM,HT-29 [13],33.4%
same,growth at 10 µM,RXF 393 [14],81%
same,growth at 0.1 µM,UO-31,92%
same,growth at 1 µM,NCI-H522,91%
same,growth at 1 µM,RXF 393 [15],85%
same,growth at 0.01 µM,UACC-257 [16],96%
same,growth at 1 µM,SNB-19 [17],89%
same,growth at 100 µM,OVCAR-4,-82%
same,growth at 0.01 µM,RXF 393 [18],95%
same,GI50,RXF 393 [19],1.58 µM
same,TGI,RXF 393 [19],3.07 µM
same,GI50,"MCF7; Homo sapiens, MCF7, 48 h",1.58 µM
same,TGI,"MCF7; Homo sapiens, MCF7, 48 h",3.43 µM
same,growth at 100 µM,SNB-75,-76%
CCCCCCCC(=O)Nc1nc2[nH]c(CN3CCN(Cc4cccc(F)c4)CC3)c(CN3CCN(Cc4cccc(F)c4)CC3)c2c(=O)[nH]1,growth at 0.1 µM,HOP-62,95%
same,growth at 0.1 µM,MDA-MB-435 [1],90%
same,GI50,NCI-H460; 48 h,0.38 µM
same,LC50,"NCI-H460; Homo sapiens, NCI-H460",4.31 µM
same,TGI,"NCI-H460; Homo sapiens, NCI-H460",1.3 µM
same,GI50,"NCI-H460; Homo sapiens, NCI-H460, 48 h",0.383 µM
same,growth at 1 µM,LOX IMVI [2],-58%
same,growth at 1 µM,IGROV-1,72%
same,growth at 0.01 µM,NCI-H226,94%
same,growth at 1 µM,Malme-3M,40%
same,GI50,T47D,0.16 µM and 1.6 µM
same,TGI,"T47D; Homo sapiens, T47D",3.47 µM
same,CC50,"T47D; Homo sapiens, T47D, read-out: LC50 (the source's name)",7.53 µM
same,growth at 1 µM,MDA-MB-435 [3],10%
same,growth at 0.01 µM,SK-OV-3,108%
same,growth at 1 µM,HT-29 [4],-26%
same,growth at 0.01 µM,LOX IMVI [5],87%
same,GI50,UACC-257 [6]; 48 h,0.2 µM
same,TGI,UACC-257 [6]; 48 h,0.46 µM
same,GI50,"UACC-257 [6]; Homo sapiens, UACC-257, 48 h",0.203 µM
same,LC50 (concentration killing 50% of cells),"UACC-257 [6]; Homo sapiens, UACC-257, 48 h",1.09 µM
same,TGI,"UACC-257 [6]; Homo sapiens, UACC-257, 48 h",0.456 µM
same,growth at 0.1 µM,SW-620 [7],97%
same,growth at 0.1 µM,NCI-H322M,92%
same,growth at 10 µM,SK-MEL-2,-66.9%
same,growth at 1 µM,BT-549 [8],63%
same,growth at 100 µM,MOLT-4,-7%
same,growth at 10 µM,BT-549 [9],29%
same,growth at 100 µM,HCC 2998,-79%
same,growth at 100 µM,SW-620 [10],-69%
same,GI50,SNB-19 [11],1.56 µM
same,LC50 (concentration killing 50% of cells),SNB-19 [11],6.34 µM
same,TGI,SNB-19 [11],3.14 µM
same,growth at 1 µM,Hs-578T,61%
same,growth at 0.1 µM,A549,98%
same,growth at 0.1 µM,DU-145,101%
same,GI50,BT-549 [12],1.53 µM
same,TGI,BT-549 [12],2.92 µM
same,CC50,BT-549 [12]; read-out: LC50 (the source's name),5.58 µM
same,growth at 10 µM,HT-29 [13],-69.7%
same,growth at 10 µM,RXF 393 [14],-92.4%
same,growth at 0.1 µM,UO-31,84%
same,growth at 1 µM,NCI-H522,100%
same,growth at 1 µM,RXF 393 [15],29%
same,growth at 0.01 µM,UACC-257 [16],89%
same,growth at 1 µM,SNB-19 [17],82%
same,growth at 100 µM,OVCAR-4,-91%
same,growth at 0.01 µM,RXF 393 [18],100%
same,GI50,RXF 393 [19],0.51 µM
same,LC50 (concentration killing 50% of cells),RXF 393 [19],4.45 µM
same,TGI,RXF 393 [19],1.74 µM
same,GI50,MCF7; 48 h,0.19 µM
same,LC50,MCF7; 48 h,0.99 µM
same,TGI,MCF7; 48 h,0.43 µM
same,GI50,"MCF7; Homo sapiens, MCF7, 48 h",0.186 µM
same,LC50,"MCF7; Homo sapiens, MCF7, 48 h",0.985 µM
same,TGI,"MCF7; Homo sapiens, MCF7, 48 h",0.428 µM
same,growth at 100 µM,SNB-75,-99%
